Experimental data: patent US11071731B2, “Allosteric modulators of the mu opioid receptor” (Chiromics, LLC, priority 2017, dated 2021)

Experiments:
ICR rats = assay: Warm water tail-flick assay with intrathecal exogenous EM1; type: in vivo
Description: The warm water tail-flick assay was chosen as the acute pain model for the reasons described above. […] Przewlocka et al., (1999), supra. First, minimum and sub-efficacious dose of EM1, applied via intrathecal injection to rats, were identified. The values obtained for the minimum (3 ug/kg) and sub-efficacious dose of EM1 (1 ug/kg) are in agreement with those found in the literature. Horvath (2000), supra. In addition, the time required for maximal response to an intrathecal injection of EM1 to be observed, as well as the time required for a return to basal levels of antinociception, were determined and likewise found to be in agreement with those found in the literature.
. For these experiments, the delay in tail flick induced by EM1 alone was compared to the delay in tail flick when compound 9 was dosed in ICR-rats in combination with intrathecal administration of minimum and sub-efficacious doses of EM1. […]; These effects might be due to any of the following: Ton[Endomorphin], KElim[Endomorphin], Toff[Endomorphin], KI[Endomorphin], and possibly additional mechanisms.
[…]. The ability to rescue a sub-therapeutic dose of the endogenous ligand in a dose- and time-dependent manner with a subtype selective MOR PAM has significant implications for the clinical viability of the use of MOR PAMs in acute and chronic pain settings.

[1] = Terminal pharmacokinetics: plasma, brain and cerebrospinal fluid concentrations; type: in vivo; details: one hour after 15 mg/kg SC or IP, CD-1 mice
Description: Given that opioid receptors are highly concentrated in the dorsal root ganglion (DRG) and brain (Martin-Schild et al., supra), terminal pharmacokinetic studies were performed to verify the concentration in the plasma, cerebrospinal fluid and brain.

mu opioid receptor (MOR) = mu opioid receptor (MOR) (Homo sapiens, UniProt P35372); assay: Hit Hunter cAMP signaling assay (adenylyl cyclase inhibition), PAM mode with EC20 endomorphin-1; type: cell-based
Sprague-Dawley rats = assay: Gastrointestinal transit of charcoal bolus and stomach contents; details: morphine 10 mg/kg, compound 9 15, 30, 60 mg/kg

mu opioid receptor (MOR), sequence (P35372 whole entry): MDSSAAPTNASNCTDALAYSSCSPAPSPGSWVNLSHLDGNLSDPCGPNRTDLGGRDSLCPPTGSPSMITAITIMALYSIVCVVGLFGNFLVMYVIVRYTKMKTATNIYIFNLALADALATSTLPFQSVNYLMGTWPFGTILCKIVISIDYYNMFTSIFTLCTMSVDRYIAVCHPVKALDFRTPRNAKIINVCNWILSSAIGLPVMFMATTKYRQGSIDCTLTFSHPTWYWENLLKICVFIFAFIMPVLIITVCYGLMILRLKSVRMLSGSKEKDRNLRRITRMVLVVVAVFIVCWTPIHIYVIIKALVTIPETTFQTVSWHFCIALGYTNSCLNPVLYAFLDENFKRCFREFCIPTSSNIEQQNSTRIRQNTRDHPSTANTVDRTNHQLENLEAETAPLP

Fc1cnc(Cl)nc1N1CCCCC1c1cccc(C(F)(F)F)c1 (single isomer, unassigned) [compound 9]
effect on antinociception of a minimally efficacious dose of EM1 (ICR rats; rat, in vivo): potentiates the effect of suboptimal doses of EM-1 | effect on antinociception of a sub-efficacious dose of EM1 (ICR rats; rat, in vivo): potentiates the effect of sub-efficaceous doses of the opioid | αβ product, in vivo effects fit (ICR rats; tail-flick, EM1 3 μg intrathecal (FIG. 12C)): 31.5 | persistence in brain and plasma [1]: persists in brain and plasma, at therapeutically relevant concentrations | EC50 (mu opioid receptor (MOR); RC50 for adenylyl cyclase inhibition, EM1-mediated MOR agonism): 590 nM | EC50 (mu opioid receptor (MOR); cAMP EC50, adenylyl cyclase inhibition): < 700 nM | Max. Response (mu opioid receptor (MOR); cAMP, EC20 EM-1 agonism of MOR): 75 | cAMP Max. Resp. (mu opioid receptor (MOR); maximal response for adenylyl cyclase inhibition): F (F represents a maximal response of > 60%) | stomach weight (Sprague-Dawley rats; 20 minutes after charcoal): unchanged | GI transit (Sprague-Dawley rats; subcutaneous 1 hour before charcoal): unchanged
